Source: ChEMBL document CHEMBL6109152, “Harnessing the SPOP E3 Ubiquitin Ligase via a Bridged Proteolysis Targeting Chimera (PROTAC) Strategy for Targeted Protein Degradation” (J Med Chem, 2025)
Active and inactive are the calls of the source. The calls are words filed in the database; no cut-off is given here.

Tests used:
[1] = target: Bromodomain-containing protein 4 (Homo sapiens, UniProt O60885); assay: Inhibition of BRD4 in human HT-29 cells assessed as decrease in c-MYC protein level by measuring fold change at 0.313 uM incubated for 24 hrs by Western blot analysis (reference value: 1.00); assay type: cell-based
[2] = target: T1, Histone-lysine N-methyltransferase EHMT1 (Homo sapiens, UniProt Q9H9B1); assay: Binding affinity to recombinant GLP-SET domain (unknown origin) assessed as assessed as dissociation constant by ITC analysis
T1 sequence (Q9H9B1 whole entry): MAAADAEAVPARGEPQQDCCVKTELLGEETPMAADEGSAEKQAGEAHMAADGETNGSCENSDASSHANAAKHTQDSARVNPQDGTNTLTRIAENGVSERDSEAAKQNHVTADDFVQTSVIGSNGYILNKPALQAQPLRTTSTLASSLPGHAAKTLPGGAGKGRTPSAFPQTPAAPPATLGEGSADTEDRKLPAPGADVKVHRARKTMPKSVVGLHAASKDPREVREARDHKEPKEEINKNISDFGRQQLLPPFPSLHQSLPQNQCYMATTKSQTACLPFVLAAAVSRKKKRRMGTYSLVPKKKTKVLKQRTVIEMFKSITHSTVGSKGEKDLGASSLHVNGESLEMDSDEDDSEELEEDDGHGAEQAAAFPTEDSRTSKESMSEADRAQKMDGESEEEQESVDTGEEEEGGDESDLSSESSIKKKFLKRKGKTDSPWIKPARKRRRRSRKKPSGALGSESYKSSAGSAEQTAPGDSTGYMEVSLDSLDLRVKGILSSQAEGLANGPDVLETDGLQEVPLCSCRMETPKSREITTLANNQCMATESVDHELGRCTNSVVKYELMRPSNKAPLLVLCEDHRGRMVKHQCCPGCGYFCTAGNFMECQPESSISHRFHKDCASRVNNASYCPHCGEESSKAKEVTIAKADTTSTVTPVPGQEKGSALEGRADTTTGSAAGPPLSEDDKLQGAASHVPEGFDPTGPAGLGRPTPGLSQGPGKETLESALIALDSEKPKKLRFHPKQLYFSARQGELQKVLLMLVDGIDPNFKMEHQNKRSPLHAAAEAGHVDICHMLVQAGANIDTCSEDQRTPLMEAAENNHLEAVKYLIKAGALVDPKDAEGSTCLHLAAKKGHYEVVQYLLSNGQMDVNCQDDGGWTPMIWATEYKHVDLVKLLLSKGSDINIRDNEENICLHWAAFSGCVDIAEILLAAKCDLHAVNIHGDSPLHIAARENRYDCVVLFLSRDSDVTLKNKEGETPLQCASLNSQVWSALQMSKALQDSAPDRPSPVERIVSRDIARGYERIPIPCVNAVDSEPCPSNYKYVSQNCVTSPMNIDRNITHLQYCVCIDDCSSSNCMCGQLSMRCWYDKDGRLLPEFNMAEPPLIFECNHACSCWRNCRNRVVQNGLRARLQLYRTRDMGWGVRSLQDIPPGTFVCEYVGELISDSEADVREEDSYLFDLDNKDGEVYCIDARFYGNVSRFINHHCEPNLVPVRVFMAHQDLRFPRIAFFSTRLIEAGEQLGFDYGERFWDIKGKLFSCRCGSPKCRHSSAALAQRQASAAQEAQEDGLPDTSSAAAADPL

[3] = target: T2, Speckle-type POZ protein-Bromodomain-containing protein 2 (Homo sapiens) (UniProt P25440+O43791); assay: PROTAC activity at SPOP/BRD2 in human HT-29 cells assessed as induction of BRD2 degradation by measuring fold change at 10 uM incubated for 24 hrs by Western blot analysis (reference value: 1.00); assay type: cell-based
T2 sequence (O43791 whole entry, looked up, canonical isoform): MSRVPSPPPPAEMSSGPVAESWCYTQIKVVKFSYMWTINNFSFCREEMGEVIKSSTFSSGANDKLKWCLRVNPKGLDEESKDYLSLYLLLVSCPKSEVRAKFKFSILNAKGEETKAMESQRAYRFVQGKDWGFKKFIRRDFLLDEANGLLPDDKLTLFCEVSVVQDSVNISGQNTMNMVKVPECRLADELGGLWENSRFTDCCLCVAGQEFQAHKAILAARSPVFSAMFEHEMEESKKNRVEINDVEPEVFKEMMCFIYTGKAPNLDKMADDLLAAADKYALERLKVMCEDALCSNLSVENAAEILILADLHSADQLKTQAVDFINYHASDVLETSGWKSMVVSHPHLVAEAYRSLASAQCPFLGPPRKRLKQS
T2 sequence (P25440 whole entry, looked up, canonical isoform): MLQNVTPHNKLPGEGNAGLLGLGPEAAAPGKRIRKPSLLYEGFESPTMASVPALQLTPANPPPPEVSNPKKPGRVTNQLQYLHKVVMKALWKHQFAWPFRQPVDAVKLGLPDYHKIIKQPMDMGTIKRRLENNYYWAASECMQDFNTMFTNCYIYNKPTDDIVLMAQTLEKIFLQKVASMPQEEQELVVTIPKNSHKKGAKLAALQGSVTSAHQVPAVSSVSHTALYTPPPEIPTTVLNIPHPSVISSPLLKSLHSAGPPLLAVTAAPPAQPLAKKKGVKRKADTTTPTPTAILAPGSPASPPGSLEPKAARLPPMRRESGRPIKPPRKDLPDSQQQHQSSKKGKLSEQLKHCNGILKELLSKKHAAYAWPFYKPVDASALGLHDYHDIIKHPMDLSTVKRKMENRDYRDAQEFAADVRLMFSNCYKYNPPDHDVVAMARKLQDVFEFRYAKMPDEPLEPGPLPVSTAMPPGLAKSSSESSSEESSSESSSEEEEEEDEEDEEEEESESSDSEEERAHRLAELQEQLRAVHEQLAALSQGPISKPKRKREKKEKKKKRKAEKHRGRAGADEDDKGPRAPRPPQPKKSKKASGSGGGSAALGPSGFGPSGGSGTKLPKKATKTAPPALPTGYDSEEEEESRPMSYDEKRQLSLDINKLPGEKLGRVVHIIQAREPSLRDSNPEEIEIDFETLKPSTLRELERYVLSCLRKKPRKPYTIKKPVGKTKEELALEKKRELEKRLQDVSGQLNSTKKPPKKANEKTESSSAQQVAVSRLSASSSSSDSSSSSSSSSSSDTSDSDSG

[4] = target: T3, Speckle-type POZ protein-Bromodomain-containing protein 4 (Homo sapiens, UniProt O60885+O43791); assay: PROTAC activity at SPOP/BRD4-L in human HT-29 cells assessed as induction of BRD4 long isoform degradation at 0.5 to 5 uM incubated for 24 hrs by Western blotting analysis; assay type: cell-based; settings: dose 0.5-5 µM
T3 sequence (O43791 whole entry, looked up, other chains not shown, canonical isoform): as the sequence (O43791 whole entry, looked up, canonical isoform) above

[5] = target: T3, Speckle-type POZ protein-Bromodomain-containing protein 4; assay: PROTAC activity at SPOP/BRD4-L in human MDA-MB-231 cells assessed as induction of BRD4 long isoform degradation at 0.1 to 5 uM incubated for 24 hrs by Western blotting analysis; assay type: cell-based; settings: dose 0.1-5 µM
[6] = target: T2, Speckle-type POZ protein-Bromodomain-containing protein 2 (Homo sapiens); assay: PROTAC activity at SPOP/BRD2 in human HT-29 cells assessed as induction of BRD2 degradation by measuring fold change at 2.5 uM incubated for 24 hrs by Western blot analysis (reference value: 1.00); assay type: cell-based
[7] = target: T2, Speckle-type POZ protein-Bromodomain-containing protein 2 (Homo sapiens); assay: PROTAC activity at SPOP/BRD2 in human HT-29 cells assessed as induction of BRD2 degradation by measuring fold change at 0.156 uM incubated for 24 hrs by Western blot analysis (reference value: 1.00); assay type: cell-based
[8] = target: T3, Speckle-type POZ protein-Bromodomain-containing protein 4; assay: PROTAC activity at SPOP/BRD4-S in human HT-29 cells assessed as induction of BRD4 short isoform degradation at 5 uM preincubated with MS1262 for 2 hrs followed by compound addition and measured after 24 hrs by Western blot analysis; assay type: cell-based
[9] = target: T3, Speckle-type POZ protein-Bromodomain-containing protein 4; assay: PROTAC activity at SPOP/BRD4-L in human HT-29 cells assessed as induction of BRD4 long isoform degradation by measuring fold change at 10 uM incubated for 24 hrs by Western blotting analysis (reference value: 1.00); assay type: cell-based
[10] = target: T3, Speckle-type POZ protein-Bromodomain-containing protein 4; assay: PROTAC activity at SPOP/BRD4-S in human HT-29 cells assessed as induction of BRD4 short isoform degradation at 5 uM incubated for 24 hrs by Western blotting analysis relative to control; assay type: cell-based

fold change (FC) [1]: 1
Kd [2]: 306 nM
fold change (FC) [3]: 0.7
Activity [4]: inactive
Activity [5]: Active
fold change (FC) [6]: 1
fold change (FC) [7]: 1.3
Activity [8]: inactive
fold change (FC) [9]: 0.6
Activity [10]: > 50%
SMILES: COc1cc2c(NC3CCN(CCCC(=O)NCCCCCCCCCCNC(=O)C[C@@H]4N=C(c5ccc(Cl)cc5)c5c(sc(C)c5C)-n5c(C)nnc54)CC3)cc(N3CCOCC3)nc2cc1OCCCN1CCCC1
